This experiment relates to NCI-H226 complex tumor spheroids, viability. The experiment can be described thus: Anticancer human tumor NCI-H226 cell line growth inhibition.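 For all read-outs here: spheroids exposed to compound for 7 days.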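 For viability, T/C: 100% = DMSO vehicle control viability.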 The conditions noted are these: for viability, T/C: stronger effect = lower value. In a few lines:
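Complex tumor spheroids combined malignant cells with endothelial cells and mesenchymal stem cells. DNA-damaging drugs and DNA repair inhibitors were tested alone and in combination, at half-log dilutions down from clinical Cmax (top 10 microM if Cmax unknown), 0.25% DMSO final.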

Setting [1] is: curve of first compound, second compound 30 pM.
The mark [2] stands for this setting: curve of first compound, second compound 94.9 pM.
Where [3] appears, read: curve of first compound, second compound 0.0003 µM.
Setting [4] is: curve of first compound, second compound 0.000949 µM.
Setting [5] is: curve of first compound, second compound 0.003 µM.

Molecules are shown by their SMILES. Where “and” joins values, the source holds several entries; their conditions need not be identical. Identical values can stand only once. Where only a bound is given, the exact number is not on record here.

Regarding `Cc1sc2c(c1C)C(c1ccc(Cl)cc1)=NC(CC(=O)Nc1ccc(O)cc1)c1nnc(C)n1-2` (stereo not given) + COc1cc2c(cc1O)CCNC21CSC2c3c(OC(C)=O)c(C)c4c(c3C(COC1=O)N1C(O)C3Cc5cc(C)c(OC)c(O)c5C(C21)N3C)OCO4, the IC50 was over 3000 nM under setting [1]; over 3000 nM under setting [2]; over 3000 nM under setting [3]; 257 nM under setting [4]; under 9.49 nM under setting [5]. Further, the viability, T/C (second compound 30 pM, first compound 0.00949 µM) was 97%; the viability, T/C (second compound 30 pM, first compound 0.03 µM) was 93.1%; the viability, T/C (second compound 30 pM, first compound 0.0949 µM) was 84%; the viability, T/C (second compound 30 pM, first compound 0.3 µM) was 84.9%; the viability, T/C (second compound 30 pM, first compound 0.949 µM) is 68%; the viability, T/C (second compound 30 pM, first compound 3 µM) was 64.8%. The viability, T/C is, setting by setting: (second compound 94.9 pM, first compound 0.00949 µM) 105%; (second compound 94.9 pM, first compound 0.03 µM) 91.8%; (second compound 94.9 pM, first compound 0.0949 µM) 87.1%; (second compound 94.9 pM, first compound 0.3 µM) 77.6%; (second compound 94.9 pM, first compound 0.949 µM) 73.9%; (second compound 94.9 pM, first compound 3 µM) 66%. The viability, T/C is, setting by setting: (second compound 0.0003 µM, first compound 0.00949 µM) 101%; (second compound 0.0003 µM, first compound 0.03 µM) 84.7%; (second compound 0.0003 µM, first compound 0.0949 µM) 75.2%; (second compound 0.0003 µM, first compound 0.3 µM) 75.9%; (second compound 0.0003 µM, first compound 0.949 µM) 72.6%; (second compound 0.0003 µM, first compound 3 µM) 48.7%. For the same molecule, the viability, T/C was 138% (second compound 0.000949 µM, first compound 0.00949 µM); 78.6% (second compound 0.000949 µM, first compound 0.03 µM); 68.2% (second compound 0.000949 µM, first compound 0.0949 µM); 67.1% (second compound 0.000949 µM, first compound 0.3 µM); 19.7% (second compound 0.000949 µM, first compound 0.949 µM); 7.53% (second compound 0.000949 µM, first compound 3 µM). For the same molecule, the viability, T/C was 2.09% (second compound 0.003 µM, first compound 0.00949 µM); 0.99% (second compound 0.003 µM, first compound 0.03 µM); 0.74% (second compound 0.003 µM, first compound 0.0949 µM); 0.28% (second compound 0.003 µM, first compound 0.3 µM); 0.28% (second compound 0.003 µM, first compound 0.949 µM); 0.51% (second compound 0.003 µM, first compound 3 µM).
For `COc1cc2c(cc1O)CCNC21CSC2c3c(OC(C)=O)c(C)c4c(c3C(COC1=O)N1C(O)C3Cc5cc(C)c(OC)c(O)c5C(C21)N3C)OCO4` (stereo not given), the viability, T/C is 104% [middle of 10 runs] (compound 30 pM) and 1.23% [middle of 10 runs] (compound 0.003 µM). Besides, the IC50 (compound alone, run of 12/12/2019) is 1.76 nM [middle of 10 runs].
Turning to `COc1cc(C)[nH]c(=O)c1CN1CCc2c(Cl)cc(C(OC)C3COC3)c(Cl)c2C1=O` (stereo not given) + COc1cc2c(cc1O)CCNC21CSC2c3c(OC(C)=O)c(C)c4c(c3C(COC1=O)N1C(O)C3Cc5cc(C)c(OC)c(O)c5C(C21)N3C)OCO4, the IC50 by setting is: under setting [1], over 10000 nM; under setting [2], over 10000 nM; under setting [3], over 10000 nM; under setting [4], over 10000 nM; under setting [5], under 31.6 nM. Besides, the viability, T/C (second compound 30 pM, first compound 0.0316 µM) was 115%; the viability, T/C (second compound 30 pM, first compound 0.1 µM) was 131%; the viability, T/C (second compound 30 pM, first compound 0.316 µM) was 128%; the viability, T/C (second compound 30 pM, first compound 1 µM) was 115%; the viability, T/C (second compound 30 pM, first compound 3.16 µM) was 126%; the viability, T/C (second compound 30 pM, first compound 10 µM) was 129%. For the same molecule, the viability, T/C by setting is: (second compound 94.9 pM, first compound 0.0316 µM) 103%; (second compound 94.9 pM, first compound 0.1 µM) 113%; (second compound 94.9 pM, first compound 0.316 µM) 125%; (second compound 94.9 pM, first compound 1 µM) 119%; (second compound 94.9 pM, first compound 3.16 µM) 127%; (second compound 94.9 pM, first compound 10 µM) 114%. The viability, T/C runs as follows: (second compound 0.0003 µM, first compound 0.0316 µM) 133%; (second compound 0.0003 µM, first compound 0.1 µM) 133%; (second compound 0.0003 µM, first compound 0.316 µM) 130%; (second compound 0.0003 µM, first compound 1 µM) 148%; (second compound 0.0003 µM, first compound 3.16 µM) 140%; (second compound 0.0003 µM, first compound 10 µM) 136%. Besides, the viability, T/C by setting is: (second compound 0.000949 µM, first compound 0.0316 µM) 103%; (second compound 0.000949 µM, first compound 0.1 µM) 119%; (second compound 0.000949 µM, first compound 0.316 µM) 111%; (second compound 0.000949 µM, first compound 1 µM) 115%; (second compound 0.000949 µM, first compound 3.16 µM) 114%; (second compound 0.000949 µM, first compound 10 µM) 109%. In addition, the viability, T/C is, setting by setting: (second compound 0.003 µM, first compound 0.0316 µM) 3.38%; (second compound 0.003 µM, first compound 0.1 µM) 1.73%; (second compound 0.003 µM, first compound 0.316 µM) 1.1%; (second compound 0.003 µM, first compound 1 µM) 1.4%; (second compound 0.003 µM, first compound 3.16 µM) 1.04%; (second compound 0.003 µM, first compound 10 µM) 0.69%.
As to `CC1COCCN1c1cc(-c2ccnn2C)c2ccnc(-c3ccn[nH]3)c2n1` (stereo not given), the viability, T/C reads like this: (compound 0.0316 µM) 93.9% and 94.7% and 94.8%; (compound 0.1 µM) 102% and 91% and 82.2%; (compound 0.316 µM) 86% and 74% and 68.6%; (compound 1 µM) 60.4% and 53.3% and 47.3%; (compound 3.16 µM) 52.5% and 44.6% and 45.4%; (compound 10 µM) 42.9% and 39.2% and 35.2%. The IC50 (curve of compound) is 2740 nM and 1500 nM and 1130 nM.

For the origin of these results see PubChem BioAssay AID1845210 (Molecular Pharmacology Branch, DTP, NCI, 2023).
